PMC7400437, “Synthesis and Evaluation of the Antibacterial Activities of 13-Substituted Berberine Derivatives” (Antibiotics, 2020)
Where two headings read alike, the source gives them in different places.

Assays:
C. rodentium = assay: MIC, antimicrobial activity assay; format: cell-based, Citrobacter rodentium (ATCC 51116); details: Citrobacter rodentium; Table 4, Gram-negative
A. gandavensis = assay: MIC, antimicrobial activity assay; format: cell-based, Arthrobacter gandavensis (DSM 2447); details: Arthrobacter gandavensis; Table 4, Gram-positive
V. alginolyticus [1] = assay: MIC, antimicrobial activity assay; format: cell-based, Vibrio alginolyticus (DSM 2171); details: Vibrio alginolyticus; Table 4, Gram-negative
V. alginolyticus [2] = assay: Bacterial membrane permeabilization assay (propidium iodide); format: cell-based, Vibrio alginolyticus; details: for membrane permeabilization at 4-times MIC, V. alginolyticus: 4-times their MIC; for maximal membrane permeabilization, V. alginolyticus: 120 min exposure to 100 µM, CTAB 300 µM = 100%
Description: (§1) Membrane permeabilization by berberine derivatives was evaluated using the cell-impermeable DNA/RNA probe propidium iodide as previously explained. Logarithmic growing bacterial suspensions were prepared from overnight bacterial suspension by 1 in 10 dilution. After 3 h incubation at 37 °C, 200 rpm, bacterial suspensions were centrifuged for 5 min at 3000 rpm. Cell pellets were then resuspended in sterile PBS at about 10^9 cells/mL. Propidium iodide (Sigma Aldrich) was then added to the suspension at a final concentration of 60 µM. 100 µL of this suspension were then transferred into 96-well black plates (Dominique Dutscher) and exposed to increasing concentrations of berberine’s derivative (from 0 to 100 µM, 1:2 dilution). […] All steps of the assay were performed in aerobic condition except for H. pylori which was done in microaerobic condition generated with GasPak unit (Sigma Aldrich). Bacteria were incubated at 37 °C and the kinetics of fluorescence variations (excitation at 530 nm and emission at 590 nm) were then recorded over time using a Synergy Mx microplate reader (Biotek). Cetyl trimethylammonium bromide (CTAB) at 300 µM was used as positive control giving 100% permeabilization. Results were expressed in % of permeabilization. All experiments were done in triplicate.

B. subtilis [3] = assay: Macromolecule synthesis inhibition assay by fluorescent microscopy (morphological changes); details: 4 × MIC, 2 h, 37 °C; for Observed Morphology: DNA, B. subtilis: DAPI; for Known/Possible Target, B. subtilis: inferred from morphology
S. enterica = assay: MIC, antimicrobial activity assay; format: cell-based, Salmonella enterica (CIP 80.39); details: Salmonella enterica; Table 4, Gram-negative
K. pneumonia = assay: MIC, antimicrobial activity assay; format: cell-based, Klebsiella pneumoniae (DSMZ 26371); details: Klebsiella pneumoniae; Table 4, Gram-negative
S. aureus = assay: Bacterial membrane permeabilization assay (propidium iodide); format: cell-based, Staphylococcus aureus; details: for membrane permeabilization at 4-times MIC, S. aureus: 4-times their MIC; for maximal membrane permeabilization, S. aureus: 120 min exposure to 100 µM, CTAB 300 µM = 100%
Description: as §1

V. alginolyticus [4] = assay: Macromolecule synthesis inhibition assay by fluorescent microscopy (morphological changes); details: 4 × MIC, 2 h, 37 °C; for Observed Morphology: DNA, V. alginolyticus: DAPI; for Observed Morphology: cell membrane, V. alginolyticus: FM4-64FX; for Known/Possible Target, V. alginolyticus: inferred from morphology
C. difficile = assay: MIC, antimicrobial activity assay; format: cell-based, Clostridium difficile (DSM 1296); details: Clostridioides difficile; Table 4, Gram-positive; anaerobic
B. subtilis [5] = assay: Bacterial membrane permeabilization assay (propidium iodide); format: cell-based, Bacillus subtilis; details: for membrane permeabilization at 4-times MIC, B. subtilis: 4-times their MIC; for maximal membrane permeabilization, B. subtilis: 120 min exposure to 100 µM, CTAB 300 µM = 100%
Description: as §1

[6] = system: DNA extracted from H. pylori; assay: DNA fragmentation assay; details: data not shown
[7] = system: P. aeruginosa (Quinolone-resistant); assay: MIC, antimicrobial activity assay; format: cell-based; details: Pseudomonas aeruginosa, read-out: MIC P. aeruginosa (Quinolone-resistant)
H. pylori = assay: Bacterial membrane permeabilization assay (propidium iodide); format: cell-based, Helicobacter pylori; details: for membrane permeabilization at 4-times MIC, H. pylori: 4-times their MIC; for maximal membrane permeabilization, H. pylori: 120 min exposure to 100 µM, CTAB 300 µM = 100%
Description: as §1

E. coli = assay: MIC, antimicrobial activity assay; format: cell-based, Escherichia coli (ATCC 8739); details: Escherichia coli
[8] = system: bacterial DNA extracted from V. alginolyticus; assay: DNA fragmentation assay; details: 6 h at 37 °C, 4-times their MIC
P. aeruginosa = assay: MIC, antimicrobial activity assay; format: cell-based, Pseudomonas aeruginosa (ATCC 9027); details: Pseudomonas aeruginosa
C. albicans = assay: MIC, antifungal activity assay; format: cell-based, Candida albicans (DSM 10697); details: Candida albicans; Table 1 first screening; 35 °C, 24 h; read-out: Minimal Inhibitory Concentration (MIC) C. albicans
B. subtilis [9] = assay: MIC, antimicrobial activity assay; format: cell-based, Bacillus subtilis (ATCC 6633); details: Bacillus subtilis
S. pyogenes = assay: MIC, antimicrobial activity assay; format: cell-based, Streptococcus pyogenes (DSM 20565); details: Streptococcus pyogenes; Table 4, Gram-positive; anaerobic
[10] = Table 1 first screening, read-out: Minimal Inhibitory Concentration (MIC) E. coli
[11] = Table 4, Gram-negative, read-out: MIC E. coli
[12] = Table 1 first screening, read-out: Minimal Inhibitory Concentration (MIC) P. aeruginosa
[13] = Table 4, Gram-negative, read-out: MIC P. aeruginosa
[14] = Table 1 first screening, read-out: Minimal Inhibitory Concentration (MIC) B. subtilis
[15] = Table 4, Gram-positive, read-out: MIC B. subtilis

Structure (SMILES)	MIC (C. rodentium)	MIC (A. gandavensis)	MIC (V. alginolyticus [1])	membrane permeabilization at 4-times MIC, V. alginolyticus (V. alginolyticus [2])	maximal membrane permeabilization, V. alginolyticus (V. alginolyticus [2])	Observed Morphology: cell elongation/enlargement, B. subtilis (B. subtilis [3])	Observed Morphology: cells connected, B. subtilis (B. subtilis [3])	Observed Morphology: DNA, B. subtilis (B. subtilis [3])	Known/Possible Target, B. subtilis (B. subtilis [3])	MIC (S. enterica)	MIC (K. pneumonia)	membrane permeabilization at 4-times MIC, S. aureus (S. aureus)	maximal membrane permeabilization, S. aureus (S. aureus)	Observed Morphology: cell elongation, V. alginolyticus (V. alginolyticus [4])	Observed Morphology: cells connected, V. alginolyticus (V. alginolyticus [4])	Observed Morphology: DNA, V. alginolyticus (V. alginolyticus [4])	Observed Morphology: cell membrane, V. alginolyticus (V. alginolyticus [4])	Known/Possible Target, V. alginolyticus (V. alginolyticus [4])	MIC (C. difficile)	membrane permeabilization at 4-times MIC, B. subtilis (B. subtilis [5])	further results
COc1ccc(C(=O)/C=C/c2ccc(Cc3c4[n+](cc5c(OC)c(OC)ccc35)CCc3cc5c(cc3-4)OCO5)cc2)c(O)c1 [Compound 25, (2E)-3-{4-[(Berberin-13-yl)methyl]phenyl}-1-(2-hydroxy-4-methoxyphenyl)prop-2-en-1-one]	> 100 µM	1.5 µM	3.12 µM	20–40%	80–100%	1–2.5 times compared to control	2–8 cells connected	DNA condensed and cross the cells with dot like shape	RNA biosynthesis	> 100 µM	> 100 µM	low to no membrane permeabilization	80–100%	2–7 times compared to control	1–2 cells connected	Condensed DNA spanning the cell	Cell membrane pigmentation	RNA biosynthesis	12.5 µM	low to no membrane permeabilization	Observed Morphology: cell membrane, B. subtilis (B. subtilis [3]; FM4-64FX): Cell membrane thickening; maximal membrane permeabilization, B. subtilis (B. subtilis [5]): 10–15%; DNA fragmentation, H. pylori DNA [6]: failed at causing the fragmentation of DNA; MIC [7]: > 100 µM; membrane permeabilization at 4-times MIC, H. pylori (H. pylori): low to no membrane permeabilization; maximal membrane permeabilization, H. pylori (H. pylori): 50–60%; MIC (E. coli; [10]): > 100 µM; MIC (E. coli; [11]): > 100 µM; DNA fragmentation, V. alginolyticus DNA [8]: did not caused DNA fragmentation; MIC (P. aeruginosa; [12]): > 100 µM; MIC (P. aeruginosa; [13]): > 100 µM; MIC (C. albicans): 12.5 µM; MIC (B. subtilis [9]; [14]): 6.25 µM; MIC (B. subtilis [9]; [15]): 6.25 µM; MIC (S. pyogenes): 6.25 µM
COc1cc(C(=O)Cc2c3[n+](cc4c(OC)c(OC)ccc24)CCc2cc4c(cc2-3)OCO4)cc(OC)c1OC(=O)c1ccccc1 [Compound 16, 4-[2-(Berberin-13-yl)acetyl]-2,6-dimethoxyphenyl Benzoate]	> 100 µM	100 µM	3.12 µM	20–40%	80–100%	1.5–6 times compared to control	2–4 cells connected	2 morphologies of DNA: • - 2 condensed DNA in each cell • - Decondensed DNA spanning the cell	Cell wall biosynthesis	> 100 µM	> 100 µM	low to no membrane permeabilization	80–100%	2–4 times compared to control	2–4 cells connected	Decondensed DNA spanning cell	Cell membrane thickening	Cell wall biosynthesis	100 µM	low to no membrane permeabilization	maximal membrane permeabilization, B. subtilis (B. subtilis [5]): 10–15%; DNA fragmentation, H. pylori DNA [6]: failed at causing the fragmentation of DNA; MIC [7]: > 100 µM; membrane permeabilization at 4-times MIC, H. pylori (H. pylori): low to no membrane permeabilization; maximal membrane permeabilization, H. pylori (H. pylori): 50–60%; MIC (E. coli; [10]): > 100 µM; MIC (E. coli; [11]): > 100 µM; DNA fragmentation, V. alginolyticus DNA [8]: did not caused DNA fragmentation; MIC (P. aeruginosa; [12]): > 100 µM; MIC (P. aeruginosa; [13]): > 100 µM; MIC (C. albicans): > 100 µM; MIC (B. subtilis [9]; [14]): 25 µM; MIC (B. subtilis [9]; [15]): 25 µM; MIC (S. pyogenes): 6.25 µM
